This passage reports IC50 results from patent US11401286B2 (Tetra Discovery Partners, LLC, priority 2012, dated 2022).

pIC50: −log10 of the molar value. Where a name gives a salt, the structure may show the parent alone.

The term pIC50 denotes the IC50 on a negative log10 scale, so that one unit is a factor of ten.

In one assay the target is PDE4D7 (Homo sapiens (Human), UniProt Q08499).
PDE4D7, sequence (Q08499 other isoform, or with tags, fused parts or gaps): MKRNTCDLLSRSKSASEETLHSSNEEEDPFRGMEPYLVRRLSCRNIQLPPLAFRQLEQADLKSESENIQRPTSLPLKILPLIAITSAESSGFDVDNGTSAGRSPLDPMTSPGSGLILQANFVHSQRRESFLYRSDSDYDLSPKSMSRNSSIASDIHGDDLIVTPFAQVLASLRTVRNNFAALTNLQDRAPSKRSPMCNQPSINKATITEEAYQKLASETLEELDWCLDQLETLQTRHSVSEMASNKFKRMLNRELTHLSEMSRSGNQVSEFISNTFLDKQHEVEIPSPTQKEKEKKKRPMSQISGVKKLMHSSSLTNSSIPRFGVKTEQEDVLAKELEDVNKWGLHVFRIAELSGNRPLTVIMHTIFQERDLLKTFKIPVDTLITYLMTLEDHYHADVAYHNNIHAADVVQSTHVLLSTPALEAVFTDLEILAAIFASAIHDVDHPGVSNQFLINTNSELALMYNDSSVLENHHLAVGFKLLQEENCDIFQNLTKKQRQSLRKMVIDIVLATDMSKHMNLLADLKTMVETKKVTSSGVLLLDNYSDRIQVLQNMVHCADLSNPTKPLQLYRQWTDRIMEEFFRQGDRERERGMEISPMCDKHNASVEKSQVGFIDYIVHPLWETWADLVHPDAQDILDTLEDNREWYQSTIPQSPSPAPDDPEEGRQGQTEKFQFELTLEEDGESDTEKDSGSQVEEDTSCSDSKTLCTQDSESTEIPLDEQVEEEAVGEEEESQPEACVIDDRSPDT
Conditions: not given
With `CN(c1ccc(CC(N)=O)cc1)c1cc(-c2cccc(Cl)c2)nc2c1CCC2` [Example 118, 2-(4-((2-(3-Chlorophenyl)-6,7-dihydro-5H-cyclopenta[b]pyridin-4-yl)(methyl)amino)phenyl)acetamide], the pIC50 was < 6.00.

The same assay, now with this note: read-out: PDE4D7 IC50.
Turning to `CCc1cc(Oc2ccc(CC(N)=O)cc2)nc(-c2cccc(Cl)c2)n1` [Example 181, 2-(4-((2-(3-Chlorophenyl)-6-ethylpyrimidin-4-yl)oxy)phenyl)acetamide], the pIC50 is < 6.00.

For the molecule `OCCc1ccc(Nc2cc(-c3cccc(Cl)c3)nc3c2CCC3)nc1` [Example 92, 2-(6-((2-(3-Chlorophenyl)-6,7-dihydro-5H-cyclopenta[b]pyridin-4-yl)amino)pyridin-3-yl)ethanol hydrochloride], the pIC50 was < 6.00.

Still in this assay, the particulars now being: read-out: PDE4D7 IC50; PDE4D7 without asterisk.
As for `CC(O)Cc1ccc(Nc2cc(-c3cccc(Cl)c3)nc3c2CCC3)cc1` (stereo not drawn) [Example 104, 1-(4-((2-(3-Chlorophenyl)-6,7-dihydro-5H-cyclopenta[b]pyridin-4-yl)amino)phenyl)propan-2-ol], the pIC50 is < 6.00.

For the molecule `O=C(O)Cc1ccc(Nc2cc(C3CC3)nc(-c3ccc(Cl)s3)n2)cc1` [Example 297, 2-[4-[[2-(5-Chloro-2-thienyl)-6-cyclopropyl-pyrimidin-4-yl]amino]phenyl]acetic acid], the pIC50 was < 6.00.

For `OCCc1ccc(Nc2cc(-c3cccc(Cl)c3)nc3c2CCC3)cc1` [Example 6, 2-[4-[[2-(3-Chlorophenyl)-6,7-dihydro-5H-cyclopenta[b]pyridin-4-yl]amino]phenyl]ethanol], the pIC50 is < 6.00.

With `O=C(O)Cc1ccc(Nc2nc(-c3cccc(Cl)c3)nc(C3CC3)n2)cc1` [Example 36, 2-(4-((4-(3-chlorophenyl)-6-cyclopropyl-1,3,5-triazin-2-yl)amino)phenyl)acetic acid], the pIC50 was < 6.00.

For the molecule `O=C(O)Cc1ccc(Cc2cc(C(F)(F)F)nc(C3CCCC3)n2)cc1` [Example 229, 2-(4-((2-Cyclopentyl-6-(trifluoromethyl)pyrimidin-4-yl)methyl)phenyl)acetic acid], the pIC50 was < 6.00.

`CCc1cc(Cc2ccc(C(C)(C)CO)cc2)nc(-c2cccc(Cl)c2)n1` [Example 197, 2-(4-((2-(3-Chlorophenyl)-6-ethylpyrimidin-4-yl)methyl)phenyl)-2-methylpropan-1-ol]: the pIC50 is < 6.00.

On to `C=Cc1ccc(Nc2nc(-c3cccc(Cl)c3)nc3c2CCC3)cc1` [Example 174, 2-(3-Chlorophenyl)-N-(4-vinylphenyl)-6,7-dihydro-5H-cyclopenta[d]pyrimidin-4-amine], for which the pIC50 was < 6.00.

Take `OCCCc1cccc(-c2cc(-c3cccc(Cl)c3)nc3c2CCC3)c1` [Example 266, 3-(3-(2-(3-chlorophenyl)-6,7-dihydro-5H-cyclopenta[b]pyridin-4-yl)phenyl)propan-1-ol hydrochloride]: the pIC50 is < 6.00.

On to `CCc1cc(Cc2ccc(CCO)cc2)nc(C2CCCC2)n1` [Example 225, 2-(4-((2-Cyclopentyl-6-ethylpyrimidin-4-yl)methyl)phenyl)ethanol], for which the pIC50 is < 6.00.

With `CCNC(=O)Cc1ccc(Nc2nc(-c3ccc(Cl)s3)nc(C)c2CC)cc1` [Example 309, 2-[4-[[2-(5-Chloro-2-thienyl)-5-ethyl-6-methyl-pyrimidin-4-yl]amino]phenyl]-N-ethyl-acetamide], the pIC50 was > 6.00.

Consider `O=C(O)c1ccc(Nc2nc(-c3ccc(Cl)cc3)nc(C3CC3)n2)cc1` [Example 38, 4-((4-(4-chlorophenyl)-6-cyclopropyl-1,3,5-triazin-2-yl)amino)benzoic acid], for which the pIC50 is > 6.00.

In the case of `N#CNC(=O)Cc1ccc(Nc2nc(-c3cccc(Cl)c3)nc3c2SCCC3)cc1` [Example 314, 2-[4-[[2-(3-Chlorophenyl)-7,8-dihydro-6H-thiopyrano[3,2-d]pyrimidin-4-yl]amino]phenyl]-N-cyano-acetamide], the pIC50 was > 6.00.

`OCCc1ccc(Nc2cc(C3CC3)nc(-c3cccc(Cl)c3)n2)nc1` [Example 214]: the pIC50 is < 6.00.

In the case of `NC(=O)Cc1ccc(Nc2cc(C3CC3)nc(-c3cccc(Cl)c3)n2)cc1` [Example 207, 2-(4-((2-(3-Chlorophenyl)-6-cyclopropylpyrimidin-4-yl)amino)phenyl)acetamide], the pIC50 was > 6.00.

Regarding `O=S1(=O)CCCc2nc(C3CCCC3)nc(Nc3ccc(CCO)cc3)c21` [Example 285, 2-Cyclopentyl-4-((4-(2-hydroxyethyl)phenyl)amino)-7,8-dihydro-6H-thiopyrano[3,2-d]pyrimidine 5,5-dioxide], the pIC50 is > 6.00.

Regarding `NC(=O)Cc1ccc(Cc2cc(C(F)(F)F)nc(-c3cccc(Cl)c3)n2)cc1` [Example 204, 2-(4-((2-(3-Chlorophenyl)-6-(trifluoromethyl)pyrimidin-4-yl)methyl)phenyl)acetamide], the pIC50 was < 6.00.

Take `COC(=O)Cc1ccc(Cc2cc(-c3cccc(Cl)c3)nc(C(F)(F)F)c2)cc1` [Example 141, Methyl 2-(4-((2-(3-chlorophenyl)-6-(trifluoromethyl)pyridin-4-yl)methyl)phenyl)acetate]: the pIC50 was < 6.00.

As to `CC(Cc1ccc(Nc2cc(-c3cccc(Cl)c3)nc3c2CCC3)cc1)(C(N)=O)C(N)=O` [Example 124, 2-(4-((2-(3-Chlorophenyl)-6,7-dihydro-5H-cyclopenta[b]pyridin-4-yl)amino)benzyl)-2-methylmalonamide hydrochloride], the pIC50 was < 6.00.

With `CCc1nc(Nc2ccc(CC#N)cc2)nc(-c2cccc(Cl)c2)n1` [Example 52, 2-(4-(4-(3-chlorophenyl)-6-ethyl-1,3,5-triazin-2-ylamino)phenyl)acetonitrile], the pIC50 was > 6.00.

In the case of `OCCc1ccc(Nc2cc(-c3cccc(Cl)c3)nc(C3CC3)c2)cc1` [Example 140, 2-(4-((2-(3-Chlorophenyl)-6-cyclopropylpyridin-4-yl)amino)phenyl)ethanol hydrochloride], the pIC50 is < 6.00.

For the molecule `NC(=O)CCc1ccc(Nc2nc(-c3cccc(Cl)c3)nc3c2CCC3)cc1` [Example 167, 3-(4-((2-(3-Chlorophenyl)-6,7-dihydro-5H-cyclopenta[d]pyrimidin-4-yl)amino)phenyl)propanamide], the pIC50 is < 6.00.

In the case of `CCc1cc(Nc2ccc(C(C)(C)C(N)=O)cc2)nc(-c2cccc(Cl)c2)n1` [Example 187, 2-(4-((2-(3-Chlorophenyl)-6-ethylpyrimidin-4-yl)amino)phenyl)-2-methylpropanamide], the pIC50 is < 6.00.

As to `CCc1c(C)nc(-c2ccc(Cl)s2)nc1Nc1ccc(Cc2nc(C(=O)O)c[nH]2)cc1` [Example 306, 2-[[4-[[2-(5-Chloro-2-thienyl)-5-ethyl-6-methyl-pyrimidin-4-yl]amino]phenyl]methyl]-1H-imidazole-4-carboxylic acid], the pIC50 was < 6.00.

As to `OCCc1ccc(Nc2cc(C3CCCC3)nc3c2CCC3)cc1` [Example 249, 2-(4-((2-cyclopentyl-6,7-dihydro-5H-cyclopenta[b]pyridin-4-yl)amino)phenyl)ethanol hydrochloride], the pIC50 is < 6.00.

In the case of `NC(=O)Cc1ccc(Nc2nc(C3CCCC3)nc3c2CCC3)cc1` [Example 216, 2-(4-((2-Cyclopentyl-6,7-dihydro-5H-cyclopenta[d]pyrimidin-4-yl)amino)phenyl)acetamide], the pIC50 was > 6.00.

Turning to `Cc1nc(Nc2ccc(C(=O)O)cc2)nc(-c2ccc(Cl)s2)n1` [Example 31, 4-(4-(5-chlorothiophen-2-yl)-6-methyl-1,3,5-triazin-2-ylamino)benzoic acid], the pIC50 was < 6.00.

Take `OCCc1ccc(Nc2nc(-c3cccc(Cl)c3)nc3c2SCCC3)cc1` [Example 272, 2-(4-((2-(3-chlorophenyl)-7,8-dihydro-6H-thiopyrano[3,2-d]pyrimidin-4-yl)amino)phenyl)ethanol]: the pIC50 was > 6.00.

For the molecule `NC(=O)Cc1ccc(Nc2cc(-c3ccco3)nc3c2CCC3)cc1` [Example 240, 2-(4-((2-(Furan-2-yl)-6,7-dihydro-5H-cyclopenta[b]pyridin-4-yl)amino)phenyl)acetamide hydrochloride], the pIC50 was < 6.00.

For the molecule `O=C(O)Cc1ccc(Nc2cc(C3CC3)nc(-c3cccc(Cl)c3)n2)nc1` [Example 213, 2-(6-((2-(3-Chlorophenyl)-6-cyclopropylpyrimidin-4-yl)amino)pyridin-3-yl)acetic acid], the pIC50 was < 6.00.

Turning to `NC(C(=O)O)c1ccc(Nc2nc(-c3ccc(Cl)s3)nc3c2CCC3)cc1` (stereo not drawn) [Example 12, 2-Amino-2-[4-[[2-(5-chloro-2-thienyl)-6,7-dihydro-5H-cyclopenta[d]pyrimidin-4-yl]amino]phenyl]acetic acid hydrochloride], the pIC50 is < 6.00.

Consider `NC(=O)Cc1ccc(Nc2ccnc(-c3cccc(Cl)c3)c2)cc1` [Example 83, 2-(4-((2-(3-Chlorophenyl)pyridin-4-yl)amino)phenyl)acetamide hydrochloride], for which the pIC50 is < 6.00.

In the case of `OCCc1ccc(Cc2cc(C3CC3)nc(-c3cccc(Cl)c3)n2)cc1` [Example 210, 2-(4-((2-(3-Chlorophenyl)-6-cyclopropylpyrimidin-4-yl)methyl)phenyl)ethanol], the pIC50 is < 6.00.

On to `CCc1c(C)nc(-c2ccc(Cl)s2)nc1Nc1ccc(Cc2nc(C(=O)OC)c[nH]2)cc1` [Example 305, Methyl 2-[[4-[[2-(5-chloro-2-thienyl)-5-ethyl-6-methyl-pyrimidin-4-yl]amino]phenyl]methyl]-1H-imidazole-4-carboxylate], for which the pIC50 is < 6.00.

Regarding `NC(=O)CCCNc1nc(-c2cccc(Cl)c2)nc2c1CCC2` [Example 178, 4-((2-(3-Chlorophenyl)-6,7-dihydro-5H-cyclopenta[d]pyrimidin-4-yl)amino)butanamide], the pIC50 was < 6.00.

Consider `CCc1nc(Nc2ccc(C(N)=O)cc2)nc(-c2cccc(Cl)c2)n1` [Example 62, 4-(4-(3-chlorophenyl)-6-ethyl-1,3,5-triazin-2-ylamino)benzamide], for which the pIC50 is > 6.00.

`CCc1cc(Cc2ccc(C(C)(C)C(N)=O)cc2)nc(-c2cccc(Cl)c2)n1` [Example 196, 2-(4-((2-(3-Chlorophenyl)-6-ethylpyrimidin-4-yl)methyl)phenyl)-2-methylpropanamide]: the pIC50 is < 6.00.
